Source: PubChem BioAssay (NCI)
Values joined by “and” are separate entries in the source; they are usually repeats but may differ in a detail not shown here. Identical values can stand only once.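 How tested: cells in 96-well plates exposed to compound for 48 hours at five concentrations. Here, GI50 denotes the concentration required for 50% inhibition of growth. TGI: total growth inhibition.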

Key:
Experiment in all cases: NCI anticancer screen, dose series, 48 h
786-0 renal = tested on: 786-0 renal
KM12 colon = tested on: KM12 colon
SN12C renal = tested on: SN12C renal
MDA-MB-231 breast = tested on: MDA-MB-231 breast
HOP-62 NSCLC = tested on: HOP-62 NSCLC
HOP-18 NSCLC = tested on: HOP-18 NSCLC
IGROV1 ovarian = tested on: IGROV1 ovarian
NCI-H460 lung = tested on: NCI-H460 lung
SF-539 CNS = tested on: SF-539 CNS
DMS 114 small cell lung = tested on: DMS 114 small cell lung

Compound	TGI (786-0 renal)	TGI (KM12 colon)	TGI (SN12C renal)	TGI (MDA-MB-231 breast)	TGI (HOP-62 NSCLC)	TGI (HOP-18 NSCLC)	TGI (IGROV1 ovarian)	TGI (NCI-H460 lung)	TGI (SF-539 CNS)	TGI (DMS 114 small cell lung)	GI50 (786-0 renal)	GI50 (KM12 colon)	GI50 (SN12C renal)	GI50 (HOP-62 NSCLC)	GI50 (HOP-18 NSCLC) [nM]	GI50 (NCI-H460 lung)	GI50 (DMS 114 small cell lung) [nM]	GI50 (MDA-MB-231 breast)	GI50 (IGROV1 ovarian)	GI50 (SF-539 CNS)
CCCCCCCC/C=C1\CCC(CN2CCOCC2)C1=O (configuration not stated)	3070 nM	12400 nM	12500 nM	4420 nM	30000 nM	25800 nM	21000 nM	39400 nM	14700 nM	20700 nM										
CO[C@H]1C[C@](C)(O)Cc2cc3c(c(O)c21)C(=O)c1c(O)cc2c(c1C3=O)O[C@@H]1O[C@@]2(C)[C@H](O)[C@@H](N(C)C)[C@@H]1O	1800 nM and 2180 nM	3180 nM and 11400 nM	2570 nM and 3480 nM	8000 nM	2570 nM and 1500 nM	4300 nM and 8600 nM	9160 nM and 18700 nM	1470 nM and 2100 nM	2300 nM and 2890 nM	2320 nM and 1710 nM	302 nM	1390 nM	560 nM	480 nM	1290	35 nM	533			
CCC1(OC(=O)CN)C(=O)OCc2c1cc1n(c2=O)Cc2cc3ccccc3nc2-1 (configuration not stated)	194 nM and 161 nM	754 nM and 4010 nM	640 nM	6040 nM	285 nM	28400 nM	726 nM and 2210 nM		191 nM and 25.3 nM	461 nM and 1020 nM	5.63 nM	22 nM	7.15 nM	94.6 nM		3.29 nM		652 nM	134 nM	37.8 nM
Cc1c(N)nc(C(CC(N)=O)NCC(N)C(N)=O)nc1C(=O)NC(C(=O)NC(C)C(O)C(C)C(=O)NC(C(=O)NCCc1nc(-c2nc(C(=O)NCCCNC(C)c3ccccc3)cs2)cs1)C(C)O)C(OC1OC(CO)C(O)C(O)C1OC1OC(CO)C(O)C(OC(N)=O)C1O)c1cnc[nH]1 (configuration not stated)	43700 nM and 33900 nM	50000 nM and > 100000 nM	29300 nM and > 100000 nM	> 100000 nM	1070 nM and 3010 nM	46800 nM	50000 nM and > 100000 nM		476 nM and 681 nM	8750 nM	1380 nM	44100 nM	5990 nM	84.5 nM		391 nM		> 100000 nM	8210 nM	37.6 nM
CC(C)c1cccc(O)c(=O)c1	> 75 µg/mL and > 100 µM	> 75 µg/mL and > 100 µM	> 75 µg/mL and > 100 µM	> 75 µg/mL	> 75 µg/mL and > 100 µM	> 100000 nM	> 75 µg/mL and > 100 µM			16000 nM	5.54 µg/mL	2.41 µg/mL	4.26 µg/mL	5.57 µg/mL		0.31 µg/mL		6.73 µg/mL	1.6 µg/mL	4.51 µg/mL
CCCCCCCCCCCCCCCCOP(=O)([O-])OCC[N+](C)(C)C	7760 nM and 25400 nM	1780 nM and 10300 nM	10700 nM and 56600 nM			> 100000 nM	3700 nM and 14000 nM		5860 nM and 52900 nM	> 100000 nM	2330 nM	341 nM	2740 nM	1380 nM		518 nM		1190 nM	901 nM	2340 nM
